Laboratory results: US6900210B2, “Pyridinyl, pyrimidinyl and pyrazinyl amides as potassium channel openers” (Bristol-Myers Squibb Company, priority 2002, dated 2005)

Tests used:
mKCNQ2 channels = biological target: T1, mKCNQ2 channels (Mus musculus, UniProt Q9Z351); assay: Whole-cell patch-clamp recordings of mKCNQ2 currents; assay type: cell-based; details: HEK 293 stable cell line expressing mKCNQ2; for EC50: @ −40 mV, room temperature; for Imax (%): maximal current from Hill-type fit
T1 construct: expressed in transfected cells
Method: Whole-cell patch-clamp recordings were made from an HEK 293 stable cell line expressing mKCNQ2 channels, maintained in culture for 1-2 days. Patch pipettes had initial resistances of 2.5-4 MQ. Currents were recorded with an EPC9 amplifier (HEKA, Lambrecht, Germany) controlled with software (Pulse, HEKA) run on a standard lab PC. Series resistance compensation was used during current recording, and set at 80%. The series resistance (R) and cell capacitance (C) were determined electronically by subtracting the capacitive currents at the onset and offset of a 5 mV voltage step. The cancellation of wholecell capacitive transients was virtually complete in all cells. Analog current signals were low-pass filtered at 2.9 kHz using a four-pole Bessel filter −3 dB) and stored on a local network server computer at a sampling rate of 1.5 kHz. All recordings were performed at room temperature (20-22° C.). The pipette solution contained (mM): KCl, 150; CaCl2, 2.5; EGTA, 5; MgCl2, 1; HEPES, 10; pH to 7.3 with KOH, and Osmolality of 290-300 mOsm. The extracellular solution contained (mM): NaCl, 140; KCl, 2.5; CaCl2, 2.5; MgCl2, 1; glucose, 10; HEPES, 10; pH to 7.3 with NaOH, and Osmolality of 305-310 mOsm
Concentration response data were generated by measuring the difference in the steady-state amplitude of current in the presence of compound at the end of a 600 ms voltage-clamp step from a holding potential of −80 mV. The concentration-response data were fitted with Hill-type equations: I=Imax/(1+EC50/[A]^nH), where I is the steady-state current at a given concentration of agonist [A]; and Imax, EC50 and nH are parameters estimated from the curve fit. In some cases the concentration-response data were fitted with equations consisting of the sum of two Hill-type components. Current-voltage (IN) relationships for agonist-evoked currents were obtained by performing 600 ms voltage steps (−110 mV to +40 mV) in the absence and presence of agonist.

[1] = system: nerve injury-induced tactile allodynia; assay: Chung model of neuropathic pain (Chung surgery and von Frey test); assay type: in vivo, Sprague Dawley rats; details: i.v., rat, von Frey thresholds over 90 min, % MPE (Drug AUC) − % MPE (Vehicle AUC)
Method: To test agents for activity against peripheral mononeuropathy nerve injury-induced tactile allodynia, male Sprague Dawley rats (wt. 120-160 g) were surgically prepared with unilateral tight ligation of spinal nerves L5 and L6 following the method of Kim and Chung (Kim S. H., Chung J. M. (1992) Pain, September; 50(3):355-63). After 3-4 weeks recovery, paw withdrawal to light touch was assessed as described by Chaplan et al. (Chaplan S. R., et al., (1994) J. Neurosci Methods, July; 53(1):55-63). In brief, rats are placed in a plastic cage with a wire mesh bottom and allowed to acclimate for 15-30 minutes, until cage exploration and grooming stops. […] After acclimation, baseline von Frey thresholds were assessed for the injured hindpaw at −15 min. […] Following drug administration, von Frey thresholds are measured at 15, 30, 60 and 90 min. Data were analyzed by a 2-way repeated measures analysis of variance followed by Dunnett's test (p<0.05). […]
Reversal of neuropathic pain behavior may be expressed as a percentage (0-100%) of the maximum possible effect, over and above the vehicle effects. […]
For example, a compound which immediately reversed neuropathic pain behavior to normal levels, such that animals only responded to the highest von Frey filament (15 g), and maintained normal levels through out the post-drug testing period (90 min) would be calculated as Δ% MPE=100%.

T1 sequence (Q9Z351 whole entry): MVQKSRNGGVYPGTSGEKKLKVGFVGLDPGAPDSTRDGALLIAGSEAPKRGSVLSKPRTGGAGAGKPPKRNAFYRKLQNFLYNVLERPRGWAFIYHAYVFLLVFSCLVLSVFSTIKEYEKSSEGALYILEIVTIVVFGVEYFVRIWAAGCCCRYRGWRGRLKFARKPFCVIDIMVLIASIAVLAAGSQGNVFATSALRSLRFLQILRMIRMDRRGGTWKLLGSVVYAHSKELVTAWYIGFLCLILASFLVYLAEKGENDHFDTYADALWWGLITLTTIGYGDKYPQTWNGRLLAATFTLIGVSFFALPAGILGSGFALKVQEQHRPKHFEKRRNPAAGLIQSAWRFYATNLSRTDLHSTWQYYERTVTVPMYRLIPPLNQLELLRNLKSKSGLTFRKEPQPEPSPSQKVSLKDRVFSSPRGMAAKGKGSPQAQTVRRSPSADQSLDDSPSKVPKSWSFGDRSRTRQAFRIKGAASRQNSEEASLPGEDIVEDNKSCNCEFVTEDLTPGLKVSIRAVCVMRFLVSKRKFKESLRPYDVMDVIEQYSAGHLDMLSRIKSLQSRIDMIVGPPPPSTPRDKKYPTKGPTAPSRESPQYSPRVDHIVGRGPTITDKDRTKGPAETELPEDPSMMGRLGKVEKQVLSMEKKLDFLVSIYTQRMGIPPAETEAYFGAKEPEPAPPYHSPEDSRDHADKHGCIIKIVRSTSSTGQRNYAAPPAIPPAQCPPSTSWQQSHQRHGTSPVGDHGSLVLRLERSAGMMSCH

Row | Compound | EC50 (mKCNQ2 channels) [µM] | Imax (%) (mKCNQ2 channels) | AUC (Δ % MPE) ([1]; 10 mg/kg) | AUC (Δ % MPE) ([1]; 100 mg/kg)
1 | C[C@H](NC(=O)/C=C/c1cc(F)ccc1F)c1cccc(Oc2ccccn2)c1 [Example 9, (S)-3-(2,5-Difluoro-phenyl)-N-{1-[3-(pyridin-2-yl-oxy)-phenyl]-ethyl}-acryl-amide] | 0.0012 | 200 |  | 
2 | C[C@H](NC(=O)/C=C/c1ccccc1F)c1cccc(Oc2cccnc2)c1 [Example 15, (S)-3-(2-Fluoro-phenyl)-N-{1-[3-(py-ridin-3-yloxy)-phen-yl]-ethyl}-acrylamide] | 0.198 | 812 | 47 (10 mg/kg, i.v.) Δ % MPE | 
3 | C[C@H](NC(=O)/C=C/c1cc(F)ccc1F)c1cccc(Oc2ccncc2)c1 [Example 45, (S)-3-(2,5-Difluoro-phenyl)-N-{1-[3-(pyridin-4-yl-oxy)-phenyl]-ethyl}-acryl-amide] | 0.11 | 784 |  | 
4 | NCC1(CC(=O)O)CCCCC1 [Gabapentin, gabapentin, reference compound] |  |  |  | 50 (100 mg/kg, i.v.) Δ % MPE
5 | (S)-4-Phenyl)-N-[1-(3-py- ridin-3-yl-phenyl)-eth- yl]-butyramide [Example 25] | 0.001 | 172 |  | 
